Measurements as given in patent publication US10995068B2, “Synthetic sphingolipid-like molecules, drugs, methods of their synthesis and methods of treatment” (The Regents of the University of California, priority 2015, dated 2021).

How the values were obtained:
[1] = tested on: fusion of LC3-positive autophagosomes with LAMP1-positive lysosomes; assay: Autophagosome-lysosome fusion in chloroquine-treated cells; format: cell-based
Description: It is known in the art that cells adapt to nutrient stress by increasing autophagic flux. However, autophagosome-lysosome fusion reactions depend upon […] release via TRPML1 channels that are activated by PI(3,5)P2. […] Chloroquine (CQ) is molecule that stabilizes the transient autophagosomes. Cells were treated with CG to stabilize autophagolysosomes and subsequently treated with FTY720, SH-BC-893, or YM201636. […] Phosphatidylinositol 5-Phosphate (PI(5)P) is essential for autophagosome biogenesis upon glucose depletion. PI(5)P is produced by dephosphorylating PI(3,5)P2, and thus PI(5)P might also be mis-localized in SH-BC-893-treated cells, and thus also contributing to the disruption of autophagosome formation. […] Thus, SH-BC-893 inhibited both autophagosome formation and degradation. As a control, Vac14 over-expression limited vacuolation (FIGS. 55F, 61F, and 62B) and rescued autophagic flux in SH-BC-893-treated cells (FIGS. 61A, 61B, 61D and 61E).
(§1) Light Microscopy: Brightfield and epifluorescence microscopy were conducted using a Nikon TE2000-S fluorescence microscope; confocal microscopy was performed on a Zeiss LSM780 confocal microscope or Nikon Eclipse Ti spinning disk confocal microscope. […] Co-localization was determined using JACoP plugin in ImageJ software. Macropinocytosis was measured after 16 h incubation in serum-free DMEM. p53−/−; LSL-K-RasG12D MEFs before (LSL) or after (KRasG12D) introduction of Cre were serum starved for 16 h and then treated with macropinocytosis inhibitor 5-(N-ethyl-N-isopropyl) amiloride (EIPA, 75 μM) for 1 h or SH-BC-893 for 6 h. Oregon Green dextran (Life Technologies, cat #D7173) (1 mg/mL) and Lysotracker Red (Life Technologies, cat #L-7525) (1:2,000 dilution) were added for 30 min and live cells were evaluated on the spinning disc confocal microscope. […]

[2] = tested on: K-RasG12D expressing cells; assay: Macropinosome fusion with lysosomes; format: cell-based; settings: dextran
Description: In cells with activated Ras, macropinocytosis might also confer resistance to nutrient transporter down-regulation. However, PI(3,5)P2 is also required for macropinosome degradation. […] Macropinosomes that fail to fuse with lysosomes would not be able to supply nutrients, such as amino acids. Thus, by disrupting PIKfyve localization, sphingolipid-like compounds limit access to lysosome-derived nutrients at the same time it down-regulates transporters for amino acids and glucose.
as §1

[3] = tested on: PC3 prostate cancer cells; assay: Cell Titer Glo proliferation assay in PC3; format: cell-based, human; settings: Cell Titer Glo, 72 h; Mean ± SEM, n ≥ 3; read-out: IC50 values in prostate cancer cell lines, PC3
Summary of the method: (§2)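 Cells plated at 1,000 cells/well and left at least 24 h, then exposed to compound for 72 h. Permeabilised with 0.1% Triton-X100, lysed with Cell Titer-Glo reagent, luminescence read; IC50 from dose-response curves. PC3 grown in F12K with 10% FCS, DU145 in MEM with 10% FCS and pyruvate.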

[4] = tested on: DU145 prostate cancer cells; assay: Cell Titer Glo proliferation assay in DU145; format: cell-based, human; settings: 72 h, Mean ± SEM, n ≥ 3, read-out: IC50 values in prostate cancer cell lines, DU145
Summary of the method: as §2

[5] = tested on: subcutaneous SW620 xenograft tumors; assay: SW620 xenograft study in nude mice; format: in vivo; settings: 20 mg/kg daily by intraperitoneal injection
Description: In even another exemplary study, anti-neoplasm potency of the constrained pyrrolidine sphingolipid-like compounds in xenograft tumor animal studies. Nude mice bearing subcutaneous SW620 xenograft tumors were treated daily with 10 mg/kg FTY720 or 20 mg/kg of compounds 5 or 15 by intraperitoneal injection. […] Furthermore, these compounds retain many of the beneficial abilities of FTY720, such as, for example water solubility, oral bioavailability, and anti-tumor activity but no longer trigger bradycardia. Thus, these compounds are ideal for medicaments and treatments for neoplasms.
SW620 and SW480 xenograft studies: For SW620 xenograft studies, two and one half million luciferase-expressing SW620 colon cancer cells suspended in PBS with 2% FCS are injected subcutaneously in the flank of 7 week old male nude mice (Charles Rivers Labs, Crl:NU(NCr)-Foxn1nu). When tumors reached 100 mm^3 in volume, mice are assigned to groups with matched average tumor volumes and animal weights. Four groups containing 7 mice are treated intraperitoneally with either vehicle (0.9% saline), 10 mg/kg FTY720, or 20 mg/kg compound 5 or compound 15. Tumor length and width are measured with calipers at 7 and 11 days of treatment. Tumor volume is calculated using the formula volume (mm^3)=length [mm]×(width [mm])^2×0.52. The average fold change in the volume of each tumor over time is shown.

| IC50 [3] [µM] | IC50 [4] [µM] | SMILES | fusion of LC3-positive autophagosomes with LAMP1-positive lysosomes [1] | macropinosome fusion with lysosomes [2] | tumor growth of SW620 xenografts [5] |
| --- | --- | --- | --- | --- | --- |
|  |  | Nc1ccc(C(=O)Nc2cccc(-c3nc(N4CCOCC4)c4oc5ncccc5c4n3)c2)cn1 [YM201636, reference compound] | reduced fusion | dramatically reduced macropinosome fusion with lysosomes |  |
| 6.3 ± 0.3 | 5.9 ± 0.3 | CCCCCCCCc1ccc([C@H]2CCN[C@@H]2COC)cc1.Cl [Compound 15] |  |  | inhibited tumor growth |
